Experimental data: ChEMBL document CHEMBL1909046, “DrugMatrix in vitro pharmacology data”

Assays:
Melanocortin receptor 5 = Melanocortin receptor 5 (Homo sapiens, UniProt P33032); type: cell membranes, HEK293, Membrane; settings: hek293; also: in other assays of this panel Not Active means under 50% inhibition at 10 µM
[1] = biological target: T1, Receptor-type tyrosine-protein phosphatase C (Homo sapiens, UniProt P08575); set-up: species or system Escherichia coli;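 also: inhibition of CD45 enzyme activity measured using DiFMUP as substrate; in other assays of this panel Not Active means under 50% inhibition at 10 µM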
T1 sequence (P08575 whole entry): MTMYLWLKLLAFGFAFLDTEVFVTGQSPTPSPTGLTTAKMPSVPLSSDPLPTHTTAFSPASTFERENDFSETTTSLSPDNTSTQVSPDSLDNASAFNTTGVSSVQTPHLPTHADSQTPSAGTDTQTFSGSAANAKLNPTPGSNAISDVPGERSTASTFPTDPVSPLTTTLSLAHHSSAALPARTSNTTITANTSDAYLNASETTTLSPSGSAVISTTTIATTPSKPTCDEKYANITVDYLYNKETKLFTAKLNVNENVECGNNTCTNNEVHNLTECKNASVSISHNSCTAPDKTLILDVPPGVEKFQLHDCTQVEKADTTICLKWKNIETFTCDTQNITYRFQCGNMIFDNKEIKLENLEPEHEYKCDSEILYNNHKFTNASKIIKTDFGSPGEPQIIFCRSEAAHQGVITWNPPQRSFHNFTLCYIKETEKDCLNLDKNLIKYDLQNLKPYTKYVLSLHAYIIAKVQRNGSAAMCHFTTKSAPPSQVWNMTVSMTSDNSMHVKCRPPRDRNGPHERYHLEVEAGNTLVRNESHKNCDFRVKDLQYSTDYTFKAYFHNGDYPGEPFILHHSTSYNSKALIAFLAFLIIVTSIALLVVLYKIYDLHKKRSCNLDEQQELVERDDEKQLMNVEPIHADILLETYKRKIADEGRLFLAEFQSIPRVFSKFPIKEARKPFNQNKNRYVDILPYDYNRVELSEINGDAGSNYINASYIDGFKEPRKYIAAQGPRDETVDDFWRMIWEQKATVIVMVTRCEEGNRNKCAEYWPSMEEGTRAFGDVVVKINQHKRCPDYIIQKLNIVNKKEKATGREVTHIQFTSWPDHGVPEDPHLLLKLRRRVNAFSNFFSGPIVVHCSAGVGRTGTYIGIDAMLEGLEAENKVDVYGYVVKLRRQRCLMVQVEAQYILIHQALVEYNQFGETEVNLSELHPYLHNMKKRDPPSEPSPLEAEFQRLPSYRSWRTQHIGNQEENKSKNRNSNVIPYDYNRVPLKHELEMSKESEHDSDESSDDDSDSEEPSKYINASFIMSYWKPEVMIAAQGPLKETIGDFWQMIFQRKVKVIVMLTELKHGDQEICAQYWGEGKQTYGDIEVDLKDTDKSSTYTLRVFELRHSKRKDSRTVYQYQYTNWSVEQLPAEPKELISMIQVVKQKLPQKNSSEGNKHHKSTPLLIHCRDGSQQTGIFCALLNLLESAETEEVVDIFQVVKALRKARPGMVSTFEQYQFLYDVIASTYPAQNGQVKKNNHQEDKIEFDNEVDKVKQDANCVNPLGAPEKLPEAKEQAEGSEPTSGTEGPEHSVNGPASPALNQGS

Glucocorticoid receptor = biological target: T2, Glucocorticoid receptor (Homo sapiens, UniProt P04150); settings: hela s3; also: in other assays of this panel Not Active means under 50% inhibition at 10 µM
T2 sequence (P04150 whole entry): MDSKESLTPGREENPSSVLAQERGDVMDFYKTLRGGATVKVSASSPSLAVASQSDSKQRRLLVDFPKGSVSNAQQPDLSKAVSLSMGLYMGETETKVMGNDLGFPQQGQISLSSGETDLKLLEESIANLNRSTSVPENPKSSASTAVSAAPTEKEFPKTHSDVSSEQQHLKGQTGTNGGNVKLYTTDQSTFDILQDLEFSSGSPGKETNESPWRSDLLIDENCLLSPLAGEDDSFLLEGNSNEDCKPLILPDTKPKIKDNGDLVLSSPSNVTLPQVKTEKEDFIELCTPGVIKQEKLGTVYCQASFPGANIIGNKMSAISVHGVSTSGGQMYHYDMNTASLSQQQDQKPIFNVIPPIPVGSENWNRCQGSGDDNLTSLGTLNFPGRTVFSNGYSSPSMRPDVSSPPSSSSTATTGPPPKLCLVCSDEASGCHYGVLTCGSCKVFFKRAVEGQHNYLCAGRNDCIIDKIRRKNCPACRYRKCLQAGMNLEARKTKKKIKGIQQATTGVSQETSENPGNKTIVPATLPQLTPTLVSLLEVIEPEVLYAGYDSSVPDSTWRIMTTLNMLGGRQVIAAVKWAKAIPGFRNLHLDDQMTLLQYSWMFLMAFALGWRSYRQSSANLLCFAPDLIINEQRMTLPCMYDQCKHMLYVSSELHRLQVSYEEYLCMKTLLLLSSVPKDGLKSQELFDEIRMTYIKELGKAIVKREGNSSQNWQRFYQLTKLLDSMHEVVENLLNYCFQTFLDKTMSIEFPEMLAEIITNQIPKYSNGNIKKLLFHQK

[2] = biological target: Mitogen-activated protein kinase 1 (Homo sapiens, UniProt P28482); test: DRUGMATRIX: Protein Serine/Threonine Kinase, ERK2 enzyme inhibition (substrate: Myelin Basic Protein); set-up: species or system Escherichia coli; settings: Not Active = under 50% inhibition at 10 µM
D(3) dopamine receptor = D(3) dopamine receptor (Homo sapiens, UniProt P35462); test: DRUGMATRIX: Dopamine D3 radioligand binding (ligand: [3H] Spiperone); type: cell membranes, CHO, Membrane; settings: cho
[3] = biological target: Aldo-keto reductase family 1 member B1 (Rattus norvegicus, UniProt P07943); test: biochemical; type: tissue-based, Lens of camera-type eye;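 also: inhibition of aldose reductase enzyme activity, measured with DL-glyceraldehyde as the substrate; in other assays of this panel Not Active means under 50% inhibition at 10 µM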

Measured: IC50

Mitogen-activated protein kinase 1, sequence (P28482 whole entry): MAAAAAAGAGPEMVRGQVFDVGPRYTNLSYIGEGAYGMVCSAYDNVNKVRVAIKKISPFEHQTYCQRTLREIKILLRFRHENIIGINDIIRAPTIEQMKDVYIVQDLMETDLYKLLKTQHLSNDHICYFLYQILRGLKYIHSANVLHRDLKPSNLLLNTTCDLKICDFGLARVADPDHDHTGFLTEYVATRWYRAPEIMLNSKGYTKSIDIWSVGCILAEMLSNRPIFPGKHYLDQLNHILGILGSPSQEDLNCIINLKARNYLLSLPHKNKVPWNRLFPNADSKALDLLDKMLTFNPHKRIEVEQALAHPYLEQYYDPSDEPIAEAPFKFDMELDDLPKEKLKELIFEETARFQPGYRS
D(3) dopamine receptor, sequence (P35462 whole entry): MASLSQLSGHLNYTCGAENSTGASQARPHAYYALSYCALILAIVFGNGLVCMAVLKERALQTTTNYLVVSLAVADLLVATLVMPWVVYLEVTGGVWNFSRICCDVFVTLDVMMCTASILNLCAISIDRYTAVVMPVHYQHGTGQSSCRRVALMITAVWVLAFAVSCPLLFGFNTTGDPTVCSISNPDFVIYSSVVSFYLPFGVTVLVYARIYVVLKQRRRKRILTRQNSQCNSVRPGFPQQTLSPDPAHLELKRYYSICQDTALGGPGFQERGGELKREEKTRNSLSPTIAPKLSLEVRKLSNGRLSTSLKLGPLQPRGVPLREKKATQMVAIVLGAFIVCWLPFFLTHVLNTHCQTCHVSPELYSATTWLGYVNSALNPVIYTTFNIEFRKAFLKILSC
Melanocortin receptor 5, sequence (P33032 whole entry): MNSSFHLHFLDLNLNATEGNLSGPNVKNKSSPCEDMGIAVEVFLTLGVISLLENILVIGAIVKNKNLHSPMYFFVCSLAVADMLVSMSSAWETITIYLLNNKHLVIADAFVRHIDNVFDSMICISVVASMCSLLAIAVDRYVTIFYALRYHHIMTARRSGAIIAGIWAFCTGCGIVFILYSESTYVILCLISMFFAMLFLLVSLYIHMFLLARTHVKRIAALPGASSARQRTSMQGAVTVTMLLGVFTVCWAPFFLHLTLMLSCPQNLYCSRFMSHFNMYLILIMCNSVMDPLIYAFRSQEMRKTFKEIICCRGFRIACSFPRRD

CCCCc1nc(Cl)c(CO)n1Cc1ccc(-c2ccccc2-c2nnn[nH]2)cc1 [LOSARTAN]
Not Active: all assays above

Cc1onc(O)c1CC(N)C(=O)O (racemic) [(R,S)-AMPA]
Not Active: all assays above

COCCc1ccc(OCC(O)CNC(C)C)cc1 (centres undefined) [METOPROLOL]
Not Active: all assays above

Cc1ccc(-c2cc(C(F)(F)F)nn2-c2ccc(S(N)(=O)=O)cc2)cc1 [CELECOXIB]
Not Active: all assays above

c1ccc(Nc2ccc(Nc3ccccc3)cc2)cc1
Not Active: all assays above

Cc1onc(-c2ccccc2Cl)c1C(=O)N[C@@H]1C(=O)N2[C@@H]1SC(C)(C)[C@@H]2C(=O)O [CLOXACILLIN]
Not Active: all assays above

CC1=C2C(=CO[C@H](C)[C@H]2C)C(O)=C(C(=O)O)C1=O [CITRININ]
Not Active: all assays above

CC[C@@]1(O)C[C@H](O[C@H]2C[C@H](N(C)C)[C@H](O[C@H]3C[C@H](O)[C@H](O[C@H]4CCC(=O)[C@H](C)O4)[C@H](C)O3)[C@H](C)O2)c2c(cc3c(c2O)C(=O)c2c(O)cccc2C3=O)[C@H]1C(=O)OC [ACLARUBICIN]
Not Active: all assays above

Nc1nc2c(ncn2CCC(CO)CO)c(=O)[nH]1 [PENCICLOVIR]
Not Active: all assays above
